# Assays:
# [1] = tested on: novel coronavirus (SARS-COV-2); test: Vero E6 cells plaque assay of SARS-COV-2 replication; assay type: cell-based
# [2] = tested on: peripheral white blood cells; conditions: cited from earlier work
# [3] = tested on: blood cancer HL-60 cells; conditions: 5 uM, cultured for 48 hours; cited from earlier work
# [4] = intraperitoneal injection of 1 mg/kg daily for 28 days, F344 rats; cited from earlier work
structure (smiles),measurement,setting,value
"C/C=C/C=C/C/C=C\CCCCCCCCCc1cc(O)ccc1O [HQ17(3), 10′(Z), 13′(E), 15′(E)-Heptadecatrienyl hydroquinone]",virus inhibition rate (viral plaques),"[1]; 10 uM HQ17(3), stock in 0.1% DMSO, Vero E6 cells, one week",more than 60%
same,EC50,"[1]; Severe acute respiratory syndrome coronavirus 2, Vero C1008, 168 h, read-out: EC50, inhibition of SARS-COV-2 replication in cells by 50%",8.5 ± 0.96 µM
same,effect on peripheral white blood cells,[2]; 5 uM,no effect on peripheral white blood cells
same,toxicity on peripheral white blood cells,[2]; 50 uM,no toxicity on peripheral white blood cells was observed
same,replication of HL-60 cells,[3],the replication of blood cancer HL-60 cells was stopped
same,toxicity in rats,[4],no toxicity was observed
